Organism: Rattus norvegicus
Experiment: Open TG-GATES - Regimen: Single
Assay type: toxicity, organism-based, Sprague-Dawley
Set-up: regimen Single, gender Male, age 6 weeks
Conditions: in vivo, po, 0 mg/kg, route gavage, dose level Control; for APTT / Bas / Eos / Fbg / Hb / Ht / MCH / MCHC / MCV / Mono / PT / Plat / RBC / Ret / WBC: tissue Blood; for ALP / ALT / CRE / DBIL / GLC / IP / K / LDH / Na / PL / RALB / TBIL / TC / TG / TP / gamma-GTP: tissue Plasma

With `CCN(CC)C(=S)SSC(=S)N(CC)CC` as the molecule, how does the TERMINAL_BW (3 h) read?
Its TERMINAL_BW is 212.4 g.

What about the APTT (3 h) of the same molecule?
The APTT was 21.9 s.

And the Bas (3 h)?
The Bas was 0%.

And the Eos (3 h)?
The Eos was 0.6%.

What about the Fbg (3 h) of the same molecule?
The Fbg was 285.8 mg/dL.

What about the Hb (3 h) of the same molecule?
The Hb was 13.2 g/dL.

What about the Ht (3 h) of the same molecule?
The Ht was 40.8%.

What about the MCH (3 h) of the same molecule?
Its MCH is 20.6 pg.

What about the MCHC (3 h) of the same molecule?
The MCHC was 32.3%.

What about the MCV (3 h) of the same molecule?
Its MCV is 63.8 fL.

And the Mono (3 h)?
The Mono was 2.6%.

What about the PT (3 h) of the same molecule?
Its PT is 16.5 s.

What about the Plat (3 h) of the same molecule?
The Plat was 98.3 x10_4/uL.

What about the RBC (3 h) of the same molecule?
The RBC was 639.2 x10_4/ul.

What about the Ret (3 h) of the same molecule?
Its Ret is 7.6%.

And the WBC (3 h)?
Its WBC is 97.5 x10_2/uL.

What about the ALP (3 h) of the same molecule?
Its ALP is 1602.8 IU/L.

And the ALT (3 h)?
Its ALT is 48 IU/L.

And the CRE (3 h)?
Its CRE is 0.2 mg/dL.

What about the DBIL (3 h) of the same molecule?
Its DBIL is 0 mg/dL.

And the GLC (3 h)?
Its GLC is 188.6 mg/dL.

And the IP (3 h)?
Its IP is 7.8 mg/dL.

And the K (3 h)?
Its K is 4.2 meq/L.

What about the LDH (3 h) of the same molecule?
The LDH was 236.6 IU/L.

What about the Na (3 h) of the same molecule?
Its Na is 141.4 meq/L.

What about the PL (3 h) of the same molecule?
Its PL is 138 mg/dL.

And the RALB (3 h)?
Its RALB is 3 g/dL.

And the TBIL (3 h)?
The TBIL was 0.006 mg/dL.

And the TC (3 h)?
The TC was 73.6 mg/dL.

What about the TG (3 h) of the same molecule?
The TG was 72.4 mg/dL.

What about the TP (3 h) of the same molecule?
The TP was 5.5 g/dL.

And the gamma-GTP (3 h)?
Its gamma-GTP is 1 IU/L.

And the TERMINAL_BW (6 h)?
Its TERMINAL_BW is 208.9 g.

What about the APTT (6 h) of the same molecule?
The APTT was 21.8 s.

And the Bas (6 h)?
Its Bas is 0%.

And the Eos (6 h)?
The Eos was 0.8%.

What about the Fbg (6 h) of the same molecule?
The Fbg was 286.4 mg/dL.

And the Hb (6 h)?
Its Hb is 12.8 g/dL.

What about the Ht (6 h) of the same molecule?
Its Ht is 39.4%.

And the MCH (6 h)?
Its MCH is 20.1 pg.

What about the MCHC (6 h) of the same molecule?
The MCHC was 32.4%.

And the MCV (6 h)?
Its MCV is 62 fL.

What about the Mono (6 h) of the same molecule?
Its Mono is 2%.

What about the PT (6 h) of the same molecule?
Its PT is 16.6 s.

What about the Plat (6 h) of the same molecule?
The Plat was 119.2 x10_4/uL.

What about the RBC (6 h) of the same molecule?
The RBC was 635.6 x10_4/ul.

And the Ret (6 h)?
Its Ret is 7.1%.

And the WBC (6 h)?
Its WBC is 102.5 x10_2/uL.

What about the ALP (6 h) of the same molecule?
The ALP was 1209.4 IU/L.

What about the ALT (6 h) of the same molecule?
The ALT was 38.8 IU/L.

What about the CRE (6 h) of the same molecule?
The CRE was 0.1 mg/dL.

And the DBIL (6 h)?
Its DBIL is 0 mg/dL.

What about the GLC (6 h) of the same molecule?
The GLC was 184 mg/dL.

And the IP (6 h)?
Its IP is 9.5 mg/dL.

What about the K (6 h) of the same molecule?
Its K is 4.4 meq/L.

And the LDH (6 h)?
The LDH was 188 IU/L.

And the Na (6 h)?
Its Na is 141 meq/L.

What about the PL (6 h) of the same molecule?
Its PL is 124.6 mg/dL.

What about the RALB (6 h) of the same molecule?
The RALB was 3 g/dL.

And the TBIL (6 h)?
Its TBIL is 0.004 mg/dL.

And the TC (6 h)?
The TC was 71.8 mg/dL.

And the TG (6 h)?
Its TG is 56.8 mg/dL.

What about the TP (6 h) of the same molecule?
The TP was 5.3 g/dL.

What about the gamma-GTP (6 h) of the same molecule?
Its gamma-GTP is 1 IU/L.

What about the TERMINAL_BW (9 h) of the same molecule?
The TERMINAL_BW was 212.5 g.

What about the APTT (9 h) of the same molecule?
The APTT was 23.3 s.

What about the Bas (9 h) of the same molecule?
The Bas was 0%.

What about the Eos (9 h) of the same molecule?
Its Eos is 0.8%.

And the Fbg (9 h)?
Its Fbg is 297.2 mg/dL.

And the Hb (9 h)?
Its Hb is 12.9 g/dL.

And the Ht (9 h)?
The Ht was 39.9%.

And the MCH (9 h)?
Its MCH is 20.2 pg.

And the MCHC (9 h)?
Its MCHC is 32.3%.

And the MCV (9 h)?
Its MCV is 62.6 fL.

And the Mono (9 h)?
Its Mono is 2.6%.

And the PT (9 h)?
Its PT is 16.4 s.

And the Plat (9 h)?
The Plat was 107.7 x10_4/uL.

What about the RBC (9 h) of the same molecule?
The RBC was 638.6 x10_4/ul.

What about the Ret (9 h) of the same molecule?
Its Ret is 7.1%.

What about the WBC (9 h) of the same molecule?
The WBC was 111.4 x10_2/uL.

And the ALP (9 h)?
Its ALP is 1326.8 IU/L.

And the ALT (9 h)?
Its ALT is 33.6 IU/L.

What about the CRE (9 h) of the same molecule?
Its CRE is 0.2 mg/dL.

And the DBIL (9 h)?
Its DBIL is 0.002 mg/dL.

And the GLC (9 h)?
Its GLC is 198.8 mg/dL.

And the IP (9 h)?
The IP was 10 mg/dL.

And the K (9 h)?
The K was 4.1 meq/L.

And the LDH (9 h)?
The LDH was 130 IU/L.

And the Na (9 h)?
Its Na is 140.8 meq/L.

And the PL (9 h)?
The PL was 132.4 mg/dL.

What about the RALB (9 h) of the same molecule?
The RALB was 3.1 g/dL.

And the TBIL (9 h)?
The TBIL was 0.008 mg/dL.

What about the TC (9 h) of the same molecule?
The TC was 72.6 mg/dL.

What about the TG (9 h) of the same molecule?
The TG was 82.4 mg/dL.

What about the TP (9 h) of the same molecule?
Its TP is 5.4 g/dL.

And the gamma-GTP (9 h)?
Its gamma-GTP is 1 IU/L.

And the TERMINAL_BW (24 h)?
The TERMINAL_BW was 229.8 g.

And the APTT (24 h)?
The APTT was 20.8 s.

What about the Bas (24 h) of the same molecule?
The Bas was 0%.

What about the Eos (24 h) of the same molecule?
Its Eos is 1%.

What about the Fbg (24 h) of the same molecule?
The Fbg was 278.6 mg/dL.

What about the Hb (24 h) of the same molecule?
The Hb was 12.5 g/dL.

What about the Ht (24 h) of the same molecule?
Its Ht is 38.4%.

And the MCH (24 h)?
Its MCH is 20.4 pg.

And the MCHC (24 h)?
The MCHC was 32.6%.

And the MCV (24 h)?
Its MCV is 62.5 fL.

And the Mono (24 h)?
Its Mono is 2.6%.

And the PT (24 h)?
Its PT is 16.4 s.

And the Plat (24 h)?
The Plat was 106.2 x10_4/uL.

What about the RBC (24 h) of the same molecule?
Its RBC is 613.8 x10_4/ul.

And the Ret (24 h)?
Its Ret is 7.5%.

And the WBC (24 h)?
The WBC was 83.8 x10_2/uL.

And the ALP (24 h)?
The ALP was 1487.8 IU/L.

What about the ALT (24 h) of the same molecule?
Its ALT is 40.4 IU/L.

What about the CRE (24 h) of the same molecule?
Its CRE is 0.1 mg/dL.

And the DBIL (24 h)?
The DBIL was 0 mg/dL.

And the GLC (24 h)?
Its GLC is 193.4 mg/dL.

What about the IP (24 h) of the same molecule?
The IP was 7.8 mg/dL.

What about the K (24 h) of the same molecule?
The K was 4.2 meq/L.

What about the LDH (24 h) of the same molecule?
The LDH was 167.6 IU/L.

And the Na (24 h)?
The Na was 141.2 meq/L.

What about the RALB (24 h) of the same molecule?
The RALB was 3 g/dL.

What about the TBIL (24 h) of the same molecule?
Its TBIL is 0.01 mg/dL.

And the TC (24 h)?
Its TC is 78.4 mg/dL.

And the TG (24 h)?
The TG was 81.6 mg/dL.

What about the TP (24 h) of the same molecule?
The TP was 5.5 g/dL.

What about the gamma-GTP (24 h) of the same molecule?
Its gamma-GTP is 1.8 IU/L.

— ChEMBL document CHEMBL3885861, “Open TG-GATES”
